In patent publication US7939513B2, “Tetracycline derivatives as antibacterial agents” (Dr. Reddy's Laboratories Limited, priority 2007, dated 2011):
In brackets after ≈: the same amount, converted by molar mass. Where a name gives a salt, the structure may show the parent alone. Read-outs that look alike come from different tables or passages of the source.

Experiments:
[1] = tested on: E. coli DRCC 018 ATCC 25922; assay: In vitro MIC by broth microdilution; type: cell-based; details: Escherichia coli, ATCC25922
Method: (§1) Minimum Inhibition Concentrations (MICs) were determined by broth microdilution technique as per the guidelines prescribed in the fifth edition of Approved Standards NCCLS document M7-A5 Vol 20-No 2, 2000 Villinova, Pa. (Currently Clinical and Laboratory Standards Institute (CLSI)). Initial stock solution of the compound of formula (I) was prepared in DMSO. Subsequent two fold dilutions were carried out in sterile Cation adjusted Muller Hinton Broth (Difco) (MHB). Frozen cultures stocks were inoculated in 25 ml sterile MHB in 50 ml Erlyn Meyer flasks.
(§2) Composition of MHB is as follows: Beef Extract Powder—2.0 grams/litre, Acid Digest of Casein—17.5 grams/litre, Soluble Starch—1.5 grams/litre, Final pH 7.3±0.1
(§3) Flasks were incubated for 4 to 5 hours at 36±1° C. on a rotary shaker at 110 rpm. Inoculum was prepared by diluting the culture in sterile MHB to obtain a turbidity of 0.5 McFarland standard. This corresponds to 1−2×10^8 CFU/mL. The stock was further diluted to achieve a final inoculum density of 5×10^4 to 1×10^5 CFU/well. The plates were incubated 18 to 20 hours at 37° C.

[2] = tested on: E. faecalis DRCC 034 VSE ATCC 29212; assay: In vitro MIC by broth microdilution; type: cell-based; details: Enterococcus faecalis, ATCC29212
Method: as §1, §2, §3

[3] = tested on: E. faecalis DRCC 153 VRE NCTC 12201; assay: In vitro MIC by broth microdilution; type: cell-based; details: Enterococcus faecalis
Method: as §1, §2, §3

[4] = tested on: E. faecium DRCC 154 VRE NCTC 12202; assay: In vitro MIC by broth microdilution; type: cell-based; details: Enterococcus faecium
Method: as §1, §2, §3

[5] = tested on: K. pn DRCC 575 ATCC 700603; assay: In vitro MIC by broth microdilution; type: cell-based; details: Klebsiella pneumoniae, ATCC700603
Method: as §1, §2, §3

[6] = tested on: P. aeru DRCC 024 ATCC 27853; assay: In vitro MIC by broth microdilution; type: cell-based; details: Pseudomonas aeruginosa, ATCC27853
Method: as §1, §2, §3

[7] = tested on: S. aureus DRCC 019 MRSA ATCC 33591; assay: In vitro MIC by broth microdilution; type: cell-based; details: Staphylococcus aureus
Method: as §1, §2, §3

[8] = tested on: S. aureus DRCC 035 MSSA ATCC 29213; assay: In vitro MIC by broth microdilution; type: cell-based; details: Staphylococcus aureus
Method: as §1, §2, §3

E faecalis DRCC 543 = assay: ED50 in murine systemic infection model; type: in vivo; details: Enterococcus faecalis, 120 h, Swiss Albino Mice, survival 5 days
Method: (§4) Animals: Specific pathogen free outbred, female and male Swiss Albino Mice, 4-6 weeks old, weighing 25±2 grams.
(§5) Inoculum Preparation: • Systemic infection model is performed based on LD50 of an organism. 10-1000×LD50 or 1-5 MLD (minimum lethal dose) is used as an infecting inoculum. • Organisms are sub-cultured on blood agar plates and incubated at 35-37° C. for 18-24 hours. Inoculum is prepared in 0.9% normal saline and optical density adjusted at 560 nm to yield an inoculum density of 10^5 to 10^9CFU/mL based on the test organism. • Adjusted inoculum is further diluted 1:1 in mucin solution to achieve a final mucin concentration of 5-7.5% (wt/vol). • Log CFUs of inoculum is determined by serially diluting the inoculum in normal saline and plating on suitable agar plates. Plates are incubated at 35-37° C. for 18-24 hours and counts determined.
(§6) Infection: • Animals are infected with 0.5 ml of inoculum by intra-peritoneal route. • Two groups of mice left untreated, serve as untreated control.
(§7) Treatment: • For single dose, compound of formula (I) is administered at 0 to 3 hour post-infection by p.o./s.c./i.v. route. • For b.i.d., compound of formula (I) administered at 0 to 3 hour post-infection for first dose and at 4 to 6 hours post-infection for second dose by p.o./s.c./i.v. route.
(§8) End point: Survival/death in each treated and untreated groups are monitored for 5 days (7 days for S. pneumoniae). The ED50 values are determined by probit analysis.

E. Coli ATCC 25992 = assay: ED50 in murine systemic infection model; type: in vivo; details: Escherichia coli, 120 h, Swiss Albino Mice, survival 5 days
Method: as §4, §5, §6, §7, §8

MRSA DRCC 446 = assay: ED50 in murine systemic infection model; type: in vivo; details: Staphylococcus aureus, 120 h, Swiss Albino Mice, survival 5 days
Method: as §4, §5, §6, §7, §8

[9] = tested on: S. aureus DRCC 035 (ATCC 29213); assay: ED50 in murine systemic infection model; type: in vivo; details: Staphylococcus aureus, 120 h, Swiss Albino Mice, survival 5 days
Method: as §4, §5, §6, §7, §8

S. pneumoniae ATCC 49619 = assay: ED50 in murine systemic infection model; type: in vivo; details: Streptococcus pneumoniae, 168 h, Swiss Albino Mice, survival 7 days
Method: as §4, §5, §6, §7, §8

[10] = E. coli DRCC 018, ATCC 25922, read-out: MIC
[11] = E. faecalis DRCC 034, VSE, ATCC 29212, read-out: MIC
[12] = E. faecalis DRCC 153, VRE, NCTC 12201, read-out: MIC
[13] = E. faecium DRCC 154, VRE, NCTC 12202, read-out: MIC
[14] = K. pn DRCC 575, ATCC 700603, read-out: MIC
[15] = P. aeru DRCC 024, ATCC 27853, read-out: MIC
[16] = S. aureus DRCC 019, MRSA, ATCC 33591, read-out: MIC
[17] = S. aureus DRCC 035, MSSA, ATCC 29213, read-out: MIC

Row | MIC [1, 10] [µg/mL] | MIC [2, 11] [µg/mL] | MIC [3, 12] [µg/mL] | MIC [4, 13] [µg/mL] | MIC [5, 14] [µg/mL] | MIC [6, 15] [µg/mL] | MIC [7, 16] [µg/mL] | MIC [8, 17] [µg/mL] | SMILES | also measured
1 | 0.5 (≈ 0.837 µM) | 0.12 (≈ 0.201 µM) | 0.12 (≈ 0.201 µM) | 0.06 (≈ 0.1 µM) | 16 (≈ 26.8 µM) | > 32 | 0.5 (≈ 0.837 µM) | 0.5 (≈ 0.837 µM) | CCN1CCC[C@H]1C(=O)Nc1cc(N(C)C)c2c(c1O)C(=O)C1=C(O)[C@]3(O)C(=O)C(C(N)=O)=C(O)[C@@H](N(C)C)[C@@H]3C[C@@H]1C2 [Example 3, (S)—N-((5aR,6aS,7S,10aS)-9-carbamoyl-4,7-bis(dimethylamino)-1,8,10a,11-tetrahydroxy-10,12-dioxo-5,5a,6,6a,7,10,10a,12-octahydrotetracen-2-yl)-1-ethylpyrrolidine-2-carboxamide] | –
2 | – | – | – | – | – | – | – | – | CC(C)CN1CCC[C@H]1C(=O)Nc1cc(N(C)C)c2c(c1O)C(=O)C1=C(O)[C@]3(O)C(=O)C(C(N)=O)=C(O)[C@@H](N(C)C)[C@@H]3C[C@@H]1C2 [Example 7, (S)—N-((5aR,6aS,7S,10aS)-9-carbamoyl-4,7-bis(dimethylamino)-1,8,10a,11-tetrahydroxy-10,12-dioxo-5,5a,6,6a,7,10,10a,12-octahydrotetracen-2-yl)-1-isobutylpyrrolidine-2-carboxamide dihydrochloride] | MIC [1]: 4 µg/mL; MIC [2]: 0.5 µg/mL; MIC [3]: 1 µg/mL; MIC [4]: 0.5 µg/mL; MIC [5]: 128 µg/mL; MIC [6]: 64 µg/mL; MIC [7]: 2 µg/mL; MIC [8]: 2 µg/mL
3 | 0.12 (≈ 0.206 µM) | 0.03 (≈ 0.0514 µM) | 0.03 (≈ 0.0514 µM) | 0.01 (≈ 0.0171 µM) | 8 (≈ 13.7 µM) | 16 (≈ 27.4 µM) | 0.25 (≈ 0.428 µM) | 0.12 (≈ 0.206 µM) | CN(C)c1cc(NC(=O)[C@@H]2CCCN2C)c(O)c2c1C[C@H]1C[C@H]3[C@H](N(C)C)C(O)=C(C(N)=O)C(=O)[C@@]3(O)C(O)=C1C2=O [Example 2, (S)—N-((5aR,6aS,7S,10aS)-9-carbamoyl-4,7-bis(dimethylamino)-1,8,10a,11-tetrahydroxy-10,12-dioxo-5,5a,6,6a,7,10,10a,12-octahydrotetracen-2-yl)-1-methylpyrrolidine-2-carboxamide] | ED50 (E faecalis DRCC 543; DRCC543, iv, E faecalis DRCC 543, i.v.-q.d.): 0.28 mg/kg; ED50 (E faecalis DRCC 543; DRCC543, po, E faecalis DRCC 543, p.o.-b.i.d.): 2.53 mg/kg; ED50 (E. Coli ATCC 25992; ATCC25992, iv, E. Coli ATCC 25992, i.v.-q.d.): 0.5 mg/kg; ED50 (E. Coli ATCC 25992; ATCC25992, po, E. Coli ATCC 25992, p.o.-b.i.d.): 12.6 mg/kg; ED50 (MRSA DRCC 446; iv, MRSA DRCC 446, i.v.-q.d.): 0.77 mg/kg; ED50 (MRSA DRCC 446; po, MRSA DRCC 446, p.o.-b.i.d.): 7.3 mg/kg; ED50 ([9]; ATCC29213, iv, i.v.-q.d.): 0.6 mg/kg; ED50 ([9]; ATCC29213, po, p.o.-b.i.d.): 5.5 mg/kg; ED50 (S. pneumoniae ATCC 49619; ATCC49619, iv, S. pneumoniae ATCC 49619, i.v.-q.d.): 0.16 mg/kg; ED50 (S. pneumoniae ATCC 49619; ATCC49619, po, S. pneumoniae ATCC 49619, p.o.-b.i.d.): 6.2 mg/kg
4 | 2 (≈ 3.27 µM) | 0.25 (≈ 0.409 µM) | 0.5 (≈ 0.817 µM) | 0.12 (≈ 0.196 µM) | > 32 | > 32 | 1 (≈ 1.63 µM) | 1 (≈ 1.63 µM) | CCCN1CCC[C@H]1C(=O)Nc1cc(N(C)C)c2c(c1O)C(=O)C1=C(O)[C@]3(O)C(=O)C(C(N)=O)=C(O)[C@@H](N(C)C)[C@@H]3C[C@@H]1C2 [Example 4, (S)—N-((5aR,6aS,7S,10aS)-9-carbamoyl-4,7-bis(dimethylamino)-1,8,10a,11-tetrahydroxy-10,12-dioxo-5,5a,6,6a,7,10,10a,12-octahydrotetracen-2-yl)-1-propylpyrrolidine-2-carboxamide] | –
